In patent publication US9333208B2, “HCN inhibitors affecting ganglion cell function and visual function” (Allergan, Inc., priority 2013, dated 2016):

Columns and labels:
HCN channel current (Ih) = HCN channel current (Ih) measurement, voltage clamp of retinal ganglion cells; format: cell-based, Brown Norway rats; conditions: different concentrations; clamped at -60 mV, stepped to -80, -100 and -120 mV for 1 second; FIG. 11
retinal ganglion cells = experiment: Retinal ganglion cell input resistance measurement, voltage clamp; format: cell-based, Brown Norway rats; conditions: different concentrations; clamped at -60 mV, stepped to -55 mV; FIG. 12

Structure (SMILES): COc1cc2c(cc1OC)CC(=O)N(CCCN(C)C[C@H]1Cc3cc(OC)c(OC)cc31)CC2 [Ivabradine, 3-[3-({[(7S)-3,4-dimethoxybicyclo[4.2.0]octa-1,3,5-trien-7-yl]methyl}(methyl)amino)propyl]-7,8-dimethoxy-2,3,4,5-tetrahydro-1H-3-benzazepin-2-one]
- retinal ganglion cell HCN (Ih) mediated current (HCN channel current (Ih)): statistically significant decrease
- retinal ganglion cell input resistance (retinal ganglion cells): increased with every concentration of Ivabradine in a linear manner
